# From ChEMBL document CHEMBL3638462, “Pyridine and pyrimidine derivatives as phosphodiesterase 10 inhibitors” (2014)
# pIC50: −log10 of the molar value. Several values for one entry are separate records, joined by “and”; a condition that tells them apart may be missing. Identical values can stand only once.
# Molecular target: cAMP and cAMP-inhibited cGMP 3',5'-cyclic phosphodiesterase 10A (Homo sapiens, UniProt Q9Y233)
# Experiment: Enzyme Inhibition Assay: To check the inhibition profile, 5 μL of serial diluted compounds were incubated with 5 μL of diluted PDE10 enzyme (BPS Bioscience, San Diego, Calif.) or tissue homogenate in a 384-well polystyrene assay plate (Corning, Corning, N.Y.) for 30 min at room temperature. After incubation, 10 μL of diluted fluorescein labeled cAMP or cGMP substrate were added and incubated for 60 min at room temperature. The reaction was stopped by adding 60 μL of diluted binding reagents and plates were read on an Envision (Perkin Elmer, Waltham, Mass.) for time resolved fluorescence resonance energy transfer. The data were analyzed with GraphPad Prism (La Jolla, Calif.).
# Sequence of cAMP and cAMP-inhibited cGMP 3',5'-cyclic phosphodiesterase 10A (Q9Y233 whole entry): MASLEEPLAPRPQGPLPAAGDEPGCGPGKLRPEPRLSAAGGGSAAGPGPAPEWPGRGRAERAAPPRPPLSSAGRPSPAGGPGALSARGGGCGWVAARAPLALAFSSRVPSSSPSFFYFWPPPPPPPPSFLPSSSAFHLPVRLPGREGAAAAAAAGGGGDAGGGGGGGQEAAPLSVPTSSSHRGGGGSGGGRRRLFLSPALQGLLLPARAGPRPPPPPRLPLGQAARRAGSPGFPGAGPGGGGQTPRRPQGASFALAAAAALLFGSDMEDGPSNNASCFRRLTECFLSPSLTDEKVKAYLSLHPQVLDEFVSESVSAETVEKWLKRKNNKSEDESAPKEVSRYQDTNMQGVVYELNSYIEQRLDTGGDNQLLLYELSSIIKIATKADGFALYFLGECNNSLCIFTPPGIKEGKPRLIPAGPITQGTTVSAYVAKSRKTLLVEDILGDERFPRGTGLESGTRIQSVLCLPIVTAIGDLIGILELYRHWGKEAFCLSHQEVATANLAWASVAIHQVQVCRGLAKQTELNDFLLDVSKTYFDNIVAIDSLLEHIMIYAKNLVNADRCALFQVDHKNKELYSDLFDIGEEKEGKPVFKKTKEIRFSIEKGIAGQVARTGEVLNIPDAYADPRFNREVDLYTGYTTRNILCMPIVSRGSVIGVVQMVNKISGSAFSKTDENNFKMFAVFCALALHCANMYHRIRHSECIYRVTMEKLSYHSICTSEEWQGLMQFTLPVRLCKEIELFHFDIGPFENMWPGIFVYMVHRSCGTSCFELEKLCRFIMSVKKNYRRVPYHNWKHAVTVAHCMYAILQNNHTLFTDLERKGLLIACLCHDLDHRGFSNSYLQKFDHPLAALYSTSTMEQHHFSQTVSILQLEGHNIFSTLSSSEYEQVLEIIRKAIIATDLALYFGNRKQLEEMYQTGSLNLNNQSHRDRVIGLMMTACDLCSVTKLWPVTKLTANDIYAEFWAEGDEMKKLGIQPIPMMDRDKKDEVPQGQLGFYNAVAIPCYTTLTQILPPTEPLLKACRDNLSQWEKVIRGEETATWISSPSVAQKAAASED
row,SMILES,pIC50
1,CC(C)c1ccc(Cn2c(Nc3ccc(Oc4ncccc4C4CCOCC4)cc3)nc3ccccc32)cc1,7.50
2,OC(c1ccc(Oc2ncccc2C2=CCOCC2)cc1)c1nc2ccccc2s1 (stereo not given),6.29
3,O=C(c1ccc(Oc2ncccc2[C@H]2CC[C@](O)(C(F)(F)F)CC2)cc1)c1nc2ccccc2[nH]1,7.90
4,COc1cccnc1-c1cccnc1Oc1ccc(Nc2nc3ccccc3s2)cc1,6.63
5,O=C(c1ccc(Oc2ncccc2[C@H]2CC[C@]3(CCO3)CC2)cc1)c1nc2ccccc2[nH]1,9.19
6,C[C@]1(O)CC[C@H](c2cccnc2Oc2ccc(C(=O)c3nc4ccccc4[nH]3)cc2)C1,9.18
7,C[C@]1(O)CC[C@@H](c2cccnc2Oc2ccc(C(=O)c3nc4ccccc4[nH]3)cc2)C1,9.12
8,O=C(c1ccc(Oc2ncccc2[C@@H]2CC[C@@H](CO)C2)cc1)c1nc2ccccc2[nH]1,9.50
9,O=C(c1ccc(Oc2ncccc2[C@@H]2CC[C@H](CO)C2)cc1)c1nc2ccccc2[nH]1,9.51
10,O=C(c1ccc(Oc2ncccc2[C@H]2CC[C@@H](CO)C2)cc1)c1nc2ccccc2[nH]1,9.67
11,COc1cncc(-c2cccnc2Oc2ccc(Nc3nc4ccccc4s3)cc2)c1,8.39
12,O=C(c1ccc(Oc2ncccc2-c2ccnc(Cl)c2)cc1)c1nc2ccccc2[nH]1,8.79
13,C[C@@]1(O)CC[C@@H](c2cccnc2Oc2ccc(Nc3nc4ccccc4s3)cc2)C1,7.97
14,C[C@]1(O)CC[C@H](c2cccnc2Oc2ccc(Nc3nc4ccccc4s3)cc2)C1,8.64
15,O[C@H]1CCC[C@H](c2cccnc2Oc2ccc(Nc3nc4ccccc4s3)cc2)C1,8.00
16,O=C(c1ccc(Oc2ncccc2[C@@H]2CCC[C@@H](O)C2)cc1)c1nc2ccccc2[nH]1,9.84 and 9.23
17,O=C(c1ccc(Oc2ncccc2[C@H]2CCC[C@H](O)C2)cc1)c1nc2ccccc2[nH]1,8.77
18,Cc1cc(-c2cccnc2Oc2ccc(C(=O)c3nc4ccccc4n3C)cc2)ccn1,8.21
19,COc1ccc(Cn2c(Nc3ccc(Oc4ncccc4C4CCOCC4)cc3)nc3ccccc32)cc1,8.77
20,c1ccc(-n2ncc3cc(Oc4ncccc4C4CCCCC4)ccc32)nc1,6.38
21,COc1cc(-c2cccnc2Oc2ccc(Nc3nc4ccccc4s3)cc2)ccn1,7.92
22,COc1cnccc1-c1cccnc1Oc1ccc(Nc2nc3ccccc3s2)cc1,9.13
23,COc1ccncc1-c1cccnc1Oc1ccc(Nc2nc3ccccc3s2)cc1,9.04
24,COc1ccnc(-c2cccnc2Oc2ccc(C(=O)c3nc4ccccc4n3C)cc2)c1,8.75
25,Cc1cnc(Oc2ccc(C(=O)c3nc4ccccc4n3C)cc2)c(-c2ccnc(C)c2)c1,8.94
26,O=C(c1ccc(Oc2ncccc2C2CCNCC2)cc1)c1nc2ccccc2[nH]1,8.68

# Now from value to compound:
row,pIC50,SMILES
1,8.87,O=C(c1ccc(Oc2ncccc2C2CCOCC2)cc1)c1nc2ncccc2[nH]1
2,9.51,O=C(c1ccc(Oc2ncccc2[C@H]2CC[C@@H](O)CC2)cc1)c1nc2ccccc2[nH]1
3,10.00,O=C(c1ccc(Oc2ncccc2[C@H]2CC[C@H](O)CC2)cc1)c1nc2ccccc2[nH]1
4,10.19,CC(=O)N1CCCC[C@@H]1c1cccnc1Oc1ccc(C(=O)c2nc3ccccc3[nH]2)cc1
5,8.63,COc1cccc(-c2cccnc2Oc2ccc(C(=O)c3nc4ccccc4[nH]3)cc2)n1
6,9.14,O=C(c1ccc(Oc2ncccc2[C@H]2CC[C@@](O)(C(F)(F)F)C2)cc1)c1nc2ccccc2[nH]1
7,8.80,O=C(c1ccc(Oc2ncccc2[C@@H]2CC[C@](O)(C(F)(F)F)C2)cc1)c1nc2ccccc2[nH]1
8,7.77,COc1cccnc1-c1cccnc1Oc1ccc(C(=O)c2nc3ccccc3[nH]2)cc1
9,8.81,CC(=O)N1CC=C(c2cncnc2Oc2ccc(C(=O)c3nc4ccccc4[nH]3)cc2)CC1
10,8.06,COc1ccc(-c2cccnc2Oc2ccc(C(=O)c3nc4ccccc4[nH]3)cc2)nc1
11,10.30,O=C(c1ccc(Oc2ncccc2[C@@H]2CCCOCC2)cc1)c1nc2ccccc2[nH]1
12,10.11,O=C1CCCC(c2cccnc2Oc2ccc(C(=O)c3nc4ccccc4[nH]3)cc2)CC1 (stereo not given)
13,8.04,Fc1ccc(Cn2c(Nc3ccc(Oc4ncccc4C4CCOCC4)cc3)nc3ccccc32)cc1
14,8.97,CC(=O)N1CCC(c2cccnc2Oc2ccc(C(=O)c3nc4ccccc4n3C)cc2)CC1
15,9.58,COc1cnccc1-c1cccnc1Oc1ccc(C(=O)c2nc3ccccc3[nH]2)cc1
16,7.99,Cn1c(C(=O)c2ccc(Oc3ncccc3-c3ccnc(F)c3)cc2)nc2ccccc21
17,9.28,CC(=O)N1CC[C@@H](c2cccnc2Oc2ccc(C(=O)c3nc4ccccc4[nH]3)cc2)C1
18,6.38,COc1nc2ccccc2cc1-c1cccnc1Oc1ccc(C(=O)c2nc3ccccc3[nH]2)cc1
19,9.79,O=C(c1ccc(Oc2ncccc2-c2cccnc2F)cc1)c1nc2ccccc2[nH]1
20,8.93,O=C(c1ccc(Oc2ncccc2-c2cc[nH]c(=O)c2)cc1)c1nc2ccccc2[nH]1
21,9.16,COc1ccc(-c2cccnc2Oc2ccc(C(=O)c3nc4ccccc4[nH]3)cc2)c(OC)n1
22,8.97,CSc1cncc(-c2cccnc2Oc2ccc(C(=O)c3nc4ccccc4[nH]3)cc2)c1
23,9.20,O=C(c1ccc(Oc2ncccc2C2CCS(=O)(=O)CC2)cc1)c1nc2ccccc2[nH]1
24,9.92,COc1cnccc1-c1cccnc1Oc1ccc(C(=O)c2nc3ccccc3n2C)cc1
25,10.14,COc1ccncc1-c1cccnc1Oc1ccc(C(=O)c2nc3ccccc3[nH]2)cc1
26,8.64,O=C(c1ccc(Oc2ncccc2C2CCOC2)cc1)c1nc2ccccc2n1CCF (stereo not given)
27,8.39,COc1ccnc(-c2cccnc2Oc2ccc(C(=O)c3nc4ccccc4[nH]3)cc2)c1
28,8.86,Cc1cnc(Oc2ccc(C(=O)c3nc4ccccc4[nH]3)cc2)c(-c2ccnc(C)c2)c1
29,7.64,COc1ncc(-c2ccnc(F)c2)c(Oc2ccc(C(=O)c3nc4ccccc4[nH]3)cc2)n1
